Measurements taken from US8802663B2, “Pyrazole oxadiazole derivatives as S1P1 agonists” (Merck Serono SA, priority 2009, dated 2014).
pEC50, pKi: −log10 of the molar value. Counter-ions that a name gives are not always drawn.

What was measured:
S1P1 [1] = molecular target: T1, S1P1 (Homo sapiens (Human), UniProt P21453); experiment: 35S-GTPγS binding, membranes from CHO cells expressing S1P1; type: biochemical; details: CHO cell membranes
S1P3 = S1P3 (Homo sapiens (Human), UniProt Q99500); experiment: 35S-GTPγS binding, membranes from CHO cells expressing S1P3; type: biochemical; details: CHO cell membranes
Procedure: (§1) Receptor binding assay: Membranes were prepared from CHO cells expressing S1P1 or S1P3 for use in ligand and […] binding studies. Cells were suspended in 50 mM TRIS, pH 7.4, 2 mM EDTA, 250 mM Sucrose (buffer A) and 1× Complete protease inhibitor cocktail (Roche), and disrupted at 4° C. by N2 decompression using a cell disruption bomb (Parr Instrument). Following centrifugation at 1000 RPM for 10 min at 4° C., the supernatant was suspended in buffer A and centrifuged again at 19000 RPM for 60 min at 4° C. The pellet was then suspended in 10 mM HEPES, pH 7.4, 1 mM EDTA, 250 mM Sucrose (Buffer B), and 1× Complete EDTA-free protease inhibitor cocktail and homogenized using a potter. Membranes were flash frozen in liquid N2 and stored at −80° C. [33P]sphingosine 1-phosphate (3000 Ci/mmol; American Radiolabeled Chemicals, Inc.) was added to test compounds in DMSO. Membranes and WGA SPA beads (GE Healthcare) were added to give a final volume of 100 μl in 96-well plates with assay concentrations of 25 pM or 10 pM [33P]sphingosine 1-phosphate (respectively for S1P1 or S1P3), 50 mM HEPES, pH 7.5, 5 mM MgCl2, 100 mM NaCl, 0.4% fatty acid-free BSA, 1-5 μg/well of proteins and 100 μg/well of WGA SPA beads. Binding was performed for 60 min at RT on a shaker and bound radioactivity was measured on a PerkinElmer 1450 MicroBeta counter. Specific binding was calculated by subtracting remaining radioactivity in the presence of 1000-fold excess of unlabeled SIP. Binding data were analyzed using the GraphPad Prism program.
Measurements of 35S-GTPγS Binding: Membranes (1 to 10 μg protein) prepared as described above, were incubated in 96-well Scintiplates (PerkinElmer) with test compounds diluted in DMSO, in 180 μl of 20 mM HEPES, pH 7.4, 10 mM MgCl2, 2 μg/well Saponin, 0.2% fatty acid free BSA (Assay buffer), 140 mM NaCl and 1.7 μM GDP. The assay was initiated with the addition of 20 μl of 1.5 nM [35S]-GTPγS (1100 Ci/mmol; GE Healthcare) in assay buffer. After 60 min incubation at 30° C. on a shaker, plates were centrifuged for 10 min at 2000 RPM. Supernatant was discarded and membrane bound radioactivity was measured on a PerkinElmer 1450 MicroBeta counter. Triplicate samples were averaged and expressed as % response relative to S1P activation in absence of compound (n=2).

S1P1 [2] = molecular target: T1, S1P1; experiment: Receptor binding assay, [33P]sphingosine 1-phosphate, membranes from CHO cells expressing S1P1; details: CHO cell membranes, 25 pM [33P]sphingosine 1-phosphate
Procedure: as §1

T1 sequence (P21453 whole entry, species assumed): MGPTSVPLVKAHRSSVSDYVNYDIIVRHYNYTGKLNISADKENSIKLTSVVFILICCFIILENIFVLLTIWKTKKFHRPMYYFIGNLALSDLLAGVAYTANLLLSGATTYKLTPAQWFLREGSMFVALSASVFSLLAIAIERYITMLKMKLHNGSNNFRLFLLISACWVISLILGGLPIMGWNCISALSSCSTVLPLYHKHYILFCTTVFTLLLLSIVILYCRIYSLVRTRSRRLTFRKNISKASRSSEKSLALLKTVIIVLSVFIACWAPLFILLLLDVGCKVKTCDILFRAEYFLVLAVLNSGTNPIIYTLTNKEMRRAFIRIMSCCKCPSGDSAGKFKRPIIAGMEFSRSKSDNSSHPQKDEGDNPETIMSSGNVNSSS
S1P3, sequence (Q99500 whole entry, species assumed): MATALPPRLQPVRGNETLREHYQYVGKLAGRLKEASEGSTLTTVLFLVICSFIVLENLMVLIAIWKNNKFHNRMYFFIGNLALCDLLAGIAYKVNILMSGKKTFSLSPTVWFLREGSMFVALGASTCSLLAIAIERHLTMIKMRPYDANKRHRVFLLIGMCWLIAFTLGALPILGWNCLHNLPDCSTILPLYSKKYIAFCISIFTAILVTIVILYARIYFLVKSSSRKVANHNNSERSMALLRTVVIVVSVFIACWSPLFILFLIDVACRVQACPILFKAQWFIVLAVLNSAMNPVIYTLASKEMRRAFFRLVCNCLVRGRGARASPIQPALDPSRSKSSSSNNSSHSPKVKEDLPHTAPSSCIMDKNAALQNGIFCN

| SMILES | pEC50 (S1P1 [1]) | pEC50 (S1P3) | pKi (S1P1 [2]) |
| --- | --- | --- | --- |
| COCc1c(-c2nc(-c3cc(F)ccc3F)no2)cnn1-c1ccccc1 [Example 1, 3-(2,5-difluorophenyl)-5-(5-(methoxymethyl)-1-phenyl-1H-pyrazol-4-yl)-1,2,4-oxadiazole] | 6.52 | < 4.70 | 6.57 |
| CS(=O)(=O)c1cccc(-c2noc(-c3cnn(-c4ccccc4F)c3-c3ccncc3)n2)c1 [Example 9, 4-(1-(2-fluorophenyl)-4-{3-[3-(methylsulfonyl)phenyl]-1,2,4-oxadiazol-5-yl}-1H-pyrazol-5-yl)pyridine] | 7.55 | < 4.70 | 8.30 |
| Fc1ccc(F)c(-c2noc(-c3cnn(C4CCCCC4)c3-c3ccccc3)n2)c1 [Example 11] | 8.22 | 6.85 | 8.05 |
| c1cc(-c2c(-c3nc(-c4ccc5[nH]ncc5c4)no3)cnn2C2CCCCC2)ccn1 [Example 38, 5-[5-(1-cyclohexyl-5-pyridin-4-yl-1H-pyrazol-4-yl)-1,2,4-oxadiazol-3-yl]-1H-indazole] | 8.52 | 6.32 | 7.17 |
| CC(C)Cn1ncc(-c2nc(-c3ccc(CN4CC(C(=O)O)C4)cc3)no2)c1-c1ccncc1 [Example 79, 1-(4-(5-(1-isobutyl-5-(pyridin-4-yl)-1H-pyrazol-4-yl)-1,2,4-oxadiazol-3-yl)benzyl)azetidine-3-carboxylic acid] | 8.02 | 5.83 | 8.64 |
| CC(C)Cn1ncc(-c2nc(-c3ccc(CNCCC(=O)O)cc3)no2)c1-c1ccncc1 [Example 89, 3-(4-(5-(1-isobutyl-5-(pyridin-4-yl)-1H-pyrazol-4-yl)-1,2,4-oxadiazol-3-yl)benzylamino)propanoic acid] | 7.92 | 5.79 |  |
| c1cc(-c2c(-c3nc(-c4ccc(Cn5cncn5)cc4)no3)cnn2C2CCCCC2)ccn1 [Example 91, 3-(4-((1H-1,2,4-triazol-1-yl)methyl)phenyl)-5-(1-cyclohexyl-5-(pyridin-4-yl)-1H-pyrazol-4-yl)-1,2,4-oxadiazole] | 8.07 | 6.83 |  |
| CC(C)Cn1ncc(-c2nc(-c3ccc(CN4CC(C(=O)O)C4)cc3)no2)c1C1CCOCC1 [Example 96, 1-(4-(5-(1-isobutyl-5-(tetrahydro-2H-pyran-4-yl)-1H-pyrazol-4-yl)-1,2,4-oxadiazol-3-yl)benzyl)azetidine-3-carboxylic acid] | 7.51 | 5.65 | 8.19 |
| O=C(O)C1CN(Cc2ccc(-c3noc(-c4cnn(C5CCCCC5)c4C4CCOCC4)n3)cc2)C1 [Example 97, 1-(4-(5-(1-cyclohexyl-5-(tetrahydro-2H-pyran-4-yl)-1H-pyrazol-4-yl)-1,2,4-oxadiazol-3-yl)benzyl)azetidine-3-carboxylic acid] | 8.85 | 6.86 | 9.15 |
| O=C(O)C1CN(Cc2ccc(-c3noc(-c4cnn(CC5CC5)c4-c4ccncc4)n3)cc2)C1 [Example 101, 1-(4-(5-(1-(cyclopropylmethyl)-5-(pyridin-4-yl)-1H-pyrazol-4-yl)-1,2,4-oxadiazol-3-yl)benzyl)azetidine 3-carboxylic acid, formate] | 7.92 | 5.79 | 8.74 |
| O=C(O)CCNCc1ccc(-c2noc(-c3cnn(C4CCCCC4)c3C3CCOCC3)n2)cc1 [Example 102, 3-(4-(5-(1-cyclohexyl-5-(tetrahydro-2H-pyran-4-yl)-1H-pyrazol-4-yl)-1,2,4-oxadiazol-3-yl)benzylamino)propanoic acid] | 8.68 | 6.67 | 9.10 |
| OCc1ccc(-c2noc(-c3cnn(C4CCCCC4)c3C3CCCO3)n2)cc1 (stereo not shown) [Example 117, (4-(5-(1-cyclohexyl-5-(tetrahydrofuran-2-yl)-1H-pyrazol-4-yl)-1,2,4-oxadiazol-3-yl)phenyl)methanol] | 7.96 | 6.21 | 8.70 |
| COCCc1c(-c2nc(-c3ccc(CN4CC(C(=O)O)C4)cc3)no2)cnn1C1CCCCC1 [Example 120, 1-(4-(5-(1-cyclohexyl-5-(2-methoxyethyl)-1H-pyrazol-4-yl)-1,2,4-oxadiazol-3-yl)benzyl)azetidine-3-carboxylic acid] | 9.30 | 6.31 | 10.00 |
| O=C(O)C1CCN(Cc2ccc(-c3noc(-c4cnn(C5CCCCC5)c4C4CCCO4)n3)cc2)CC1 (stereo not shown) [Example 125, 1-(4-(5-(1-cyclohexyl-5-(tetrahydrofuran-2-yl)-1H-pyrazol-4-yl)-1,2,4-oxadiazol-3-yl)benzyl)piperidine-4-carboxylic acid] | 8.72 | 6.37 | 9.22 |
